Several values for one entry are separate records, joined by “and”; a condition that tells them apart may be missing. Equal entries are not always repeated.

One experiment deals with calf thymus DNA. In words: Characterisation of DNA adducts with thiourea. Format: binding. As to conditions: in the dark; for Total adducts displaced from DNA by thiourea after 24 h: 10 mM thiourea; for Bifunctional adducts after 24 h: thiourea probe. Here is the method: Characterisation of DNA adducts: The experiments aimed at the characterisation of DNA adducts of photoactivated 1 or 2, and of 5 or 6 in the dark were conducted employing thiourea as a probe of DNA monofunctional adducts of trans-platinum(II) compounds[24] (for details, see the Supporting Information). After 24 h, 55(±10), 48(±2), 66(±1) and 64(±3) % of the total adducts of platinum complexes 1, 2, 5 and 6, respectively, were displaced from DNA by thiourea (Figure 10). Thus, only 45, 52, 34 and 36 % of DNA adducts formed by 1 or 2 (photoactivated) and 5 or 6 (in the dark), respectively, had evolved to bifunctional lesions after this time interval.
Figure 10 Quantification of DNA adducts by thiourea. Dependence of rb on incubation time for calf thymus DNA modified by photoactivated: A) 1, or B) 2 (420 nm light); and in the dark with: C) 5, or D) 6. Reactions were stopped with thiourea (10 mM; 10 min, 310 K; ▴) or without thiourea (▪), and the platinum associated with DNA was assessed. […]
assayed by differential pulse polarography for free, unbound platinum.[16] The amount of platinum bound to DNA was calculated by subtracting the amount of free (unbound) platinum from the total amount of platinum present in the reaction.
Transcription mapping of DNA adducts in vitro
The 212-bp DNA fragment used was yielded from cutting of pSP73KB DNA by NdeI and HpaI restriction endonucleases (a substantial part of the nucleotide sequence is […]
This fragment contained T7 RNA polymerase promoter (in the upper strand close to its 3'-end). This linear DNA fragment was randomly modified by transplatin (8), cisplatin (7), 5 and 6 in the dark and by 1 and 2 photoactivated with 420 nm light at rb = 0.01, for RNA synthesis by T7 RNA polymerase. The fragments produced in RNA synthesis on the template modified by the platinum complexes were analysed by a 6% polyacrylamide/8M urea sequencing gel.
Quantification of DNA adducts
Double-helical calf thymus DNA at a concentration of 32 µg/mL was incubated with 5 or 6 in the dark, or alternatively, DNA mixed with 1 or 2 was irradiated for 30min (λirrad = 420 nm) and then incubated in the dark in 10 mM NaClO4 at 310 K. At various time intervals the aliquots were withdrawn and the platination reaction was stopped by addition of 10 mM thiourea, samples were incubated for 10 min at […] and then quickly cooled to 253 K. In parallel experiments, 100 mM NaCl was added to the samples instead of thiourea and samples were immediately cooled to 253 K.
(§1) Platinum associated with DNA was assessed by flameless atomic absorption […]
(§2) Quantification of DNA interstrand cross-links […]

The next experiment concerns A2780 cells. Nature of the experiment: SRB proliferation assay for non-light-sensitive complexes, A2780. It counts as cell-based, human. As to conditions: ambient light, 24 h exposure, 72 h recovery. Here is the method: (§3) Cytotoxicity of platinum(II) precursors: To investigate the relationship between the Pt^IV diazidodihydroxido complexes and their Pt^II dichlorido analogues trans-[PtCl2(Am1)(Am2)] (where Am=amine), the cytotoxicities of complexes trans-[PtCl2(MA)(Py)] (5) and trans-[PtCl2(MA)(Tz)] (6) towards A2780 and its cisplatin resistant sub-line A2780cis were determined. The toxicity was not photoinduced, as the complexes are not photoactive. Complexes 5 and 6 are highly cytotoxic towards A2780 and A2780cis cells compared to the reported trans-Pt^II compounds.[18]–[22] Complex 5 is about three-times more cytotoxic than complex 6 towards A2780 cells. […]
(§4) Cell Culture and Proliferation Assay for Non-light-sensitive Complexes
(§5) The A2780 ovarian cell line was obtained from the ECACC (European Collection of Animal Cell Culture, Salisbury, United Kingdom). The cells were maintained in RPMI 1640 media, which was supplemented with 10% foetal calf serum, 1% L-glutamine, and 1% penicillin/streptomycin. All cells were grown at 310 K in an humidified atmosphere containing 5% CO2. Stock solutions of the Pt complexes were freshly prepared in DMSO to assist dissolution and then diluted into saline and medium (maximum final concentration of DMSO 1% and saline 6%). After plating 5000 A2780 cells per well on day 1, Pt complexes were added to the cancer cells on day 3 at concentrations ranging from 0.01 to 100 µM, depending on the preliminary activity data obtained in screening assays. Cells were exposed to the complexes for 24 h, washed with PBS, supplied with fresh medium, and allowed to grow for three doubling times (72 h), and then the protein content (proportional to cell survival) was measured using the sulforhodamine B (SRB) assay.[7] The standard errors are based on two independent experiments of three replicates each.[8]
(In general: In SRB staining, fixed cells bind dye roughly in proportion to their protein.)

Experiment [1] concerns 212 bp NdeI–HpaI fragment of pSP73KB DNA. In words: Transcription mapping of DNA adducts (T7 RNA polymerase). Format: biochemical. The settings on record: in the dark; rb=0.01. The procedure:
Sequence preference of DNA adducts: Transcription mapping experiments were performed to determine the DNA binding sites for Pt complexes. The experiments were carried out using a linear 212 bp DNA fragment (sequence in Figure 9 B), randomly modified by transplatin (8), cisplatin (7), 5 or 6 in the dark or by 1 and 2 photoactivated with blue light (420 nm) at rb=0.01 (rb is defined as the number of the molecules of platinum complex coordinated per nucleotide residue), for RNA synthesis by T7 RNA polymerase (Figure 9 A, lanes 8, 7, 5, 6, 1 and 2, respectively). RNA synthesis on the template modified by the platinum complexes produced fragments of defined sizes (Figure 9 A), which indicate the sites where RNA synthesis was prematurely terminated. It should be noted that RNA synthesis by T7 RNA polymerase is prematurely terminated only due to the platinum adducts on the template strand.[23] […] The ability to bind to A and C sites is consistent with the result from AMP and CMP binding experiments (Figure S18 in the Supporting Information).
Figure 9 Inhibition of RNA synthesis by T7 RNA polymerase on the NdeI–HpaI fragment of pSP73KB plasmid DNA modified by complexes 5 or 6, cisplatin (7) or transplatin (8) in the dark, or with photoactivated 1 or 2 (420 nm light). A) Autoradiogram of a polyacrylamide (6 %)/urea (8 M) sequencing gel. […]
assayed by differential pulse polarography for free, unbound platinum.[16] The amount of platinum bound to DNA was calculated by subtracting the amount of free (unbound) platinum from the total amount of platinum present in the reaction. […]
This fragment contained T7 RNA polymerase promoter (in the upper strand close to its 3'-end). […] The fragments produced in RNA synthesis on the template modified by the platinum complexes were analysed by a 6% polyacrylamide/8M urea sequencing gel.
Quantification of DNA adducts […]
as §1, §2

Another experiment relates to A2780cis cells. In words: SRB proliferation assay for non-light-sensitive complexes, A2780cis. It counts as cell-based, human. As to conditions: for Resistance factor: A2780cis vs A2780, SRB assay; for IC50: ambient light, 24 h exposure, 72 h recovery, SRB. Here is the method:
as §3, §4, §5

As to `C[NH2+][Pt@SP3-2]([Cl])([Cl])[n+]1ccccc1` [Complex 5, trans-[PtCl2(MA)(Py)]], in the experiment with calf thymus DNA, the “Total adducts displaced from DNA by thiourea after 24 h” value is given as 66(±1) %; the “Bifunctional adducts after 24 h” value is 34% and 34±1%. For the same compound, half-maximal inhibition with A2780 cells (IC50) was put at 2.4 ± 0.7 µM. For the same compound, in experiment [1], the Sequence specificity result was “stop sites mainly at G and C and G, C”. Further, in the experiment on A2780cis cells, the Resistance factor was 1.25 and the 50% inhibitory concentration (IC50) (commonly the concentration needed to halve the response being measured) came out at 3 ± 0.7 µM.

For `C[NH2+][Pt@SP3-2]([Cl])([Cl])[n+]1ccsc1` [Complex 6, trans-[PtCl2(MA)(Tz)]], in the experiment with calf thymus DNA, the “Total adducts displaced from DNA by thiourea after 24 h” value is reported as 64(±3) %; the “Bifunctional adducts after 24 h” value was 36% and 36±2%. In the experiment on A2780 cells, this compound gave a concentration for half-maximal inhibition (IC50) of 6.9 ± 2.3 µM. The Sequence specificity entry in experiment [1] is “stop sites mainly at G and C and G, C”. In the experiment on A2780cis cells, this compound showed a Resistance factor of 1.0 and an IC50 of 6.8 ± 0.9 µM.

The values above are taken from paper PMC4280898, “Diazido Mixed-Amine Platinum(IV) Anticancer Complexes Activatable by Visible-Light Form Novel DNA Adducts” (Chemistry (Weinheim an Der Bergstrasse, Germany), 2013).
